Test results: patent US7611696B2, “Sunscreen compositions as well as dihydropyridines and dihydropyranes” (DSM IP Assets B.V., priority 2002, dated 2009)

How the values were obtained:
[1] = UV absorption (λmax and ε) of the prepared UV-A screening compounds; type: physicochemical; details: UV absorption maximum; solvent not stated

## CC1=CC(=C(C#N)C#N)C=C(C)N1CCC(C)CC(C)(C)C (stereo not shown) [1-N-[3,5,5-trimethylhexyl]-4-dicyanomethylene-2,6-dimethyl-1,4-dihydropyridine]
[1]
  UV: λmax: 372 nm

## CCCCC(CC)COCCCN1C(C)=CC(=C(C#N)C#N)C=C1C (stereo not shown) [1-N-[3-(2-ethylhexyloxy)propyl]-4-dicyanomethylene-2,6-dimethyl-1,4-dihydropyridine]
[1]
  UV: λmax: 370 nm

## CCCCN1C(C)=CC(=C(C#N)C#N)C=C1C [1-N-butyl-4-dicyanomethylene-2,6-dimethyl-1,4-dihydropyridine]
[1]
  UV: λmax: 370 nm

## CCCCCCCCCCCCN1C(C)=CC(=C(C#N)C#N)C=C1C [1-N-dodecyl-4-dicyanomethylene-2,6-dimethyl-1,4-dihydropyridine]
[1]
  UV: λmax: 370 nm

## CC1=CC(=C(C#N)C#N)C=C(C)N1C [1-N-methyl-4-dicyanomethylene-2,6-dimethyl-1,4-dihydropyridine]
other
  melting point: > 250 °C
[1]
  UV: λmax: 368 nm

## CCOC(=O)C(C#N)=C1C=C(C)OC(C)=C1 [Example 1, ethyl (2,6-dimethyl-pyran-4-ylidene) cyanoacetate]
[1]
  UV: λmax: 348 nm

## CCCCC(CC)COC(=O)C(C#N)=C1C=C(C)OC(C)=C1 (stereo not shown) [Example 2, 2-ethylhexyl (2,6-dimethyl-pyran-4-ylidene) cyanoacetate]
[1]
  UV: λmax: 352 nm

## CCC1=C(C)C(=C(C#N)C#N)C(C)=C(CC)O1 [Example 3, 2-(2,6-diethyl-3,5-dimethylpyran-4-ylidene)malononitrile]
other
  melting point: 64 to 65 °C
[1]
  UV: λmax: 366 nm

## CCCC1=C(CC)C(=C(C#N)C#N)C(CC)=C(CCC)O1 [Example 4, 2-(3,5-diethyl-2,6-dipropylpyran-4-ylidene)malononitrile]
[1]
  UV: λmax: 364 nm

## CCCCC(CC)CN1C(C)=CC(=C(C#N)C#N)C=C1C (stereo not shown) [Example 5, 1-N-(2-ethylhexyl)-4-dicyanomethylene-2,6-dimethyl-1,4-dihydropyridine]
other
  melting point: 187 °C
[1]
  UV: λmax: 372 nm

## CCCCC(CC)COC(=O)C(C#N)=C1C=C(C)N(CCCC)C(C)=C1 (stereo not shown) [Example 7, 2-ethylhexyl (1-N-butyl-2,6-dimethyl-1H-pyridin-4-ylidene)cyanoacetate]
other
  melting point: 69 to 70 °C
[1]
  UV: λmax: 374 nm

## CCCCC(CC)COCCCN1C(C)=CC(=C(C#N)C(=O)OCC(CC)CCCC)C=C1C (stereo not shown) [Example 8, 2-ethylhexyl (1-N-[3-(2-ethylhexyloxy)propyl]-2,6-di-methyl-1H-pyridin-4ylidene)cyanoacetate]
other
  melting point: 69 to 70 °C
[1]
  UV: λmax: 366 nm

## CC1=CC(=C(C#N)C#N)C=C(C)N1CCCOCCOCCOCCCN1C(C)=CC(=C(C#N)C#N)C=C1C [Example 9, 2-{1-[3-(2-{2-[3-(4-dicyanomethylene-2,6-dimethyl-4H-pyridin-1-yl)-propoxy]-ethoxy}-ethoxy)-propyl]-2,6-dimethyl-1H-pyridin-4-ylidene}-malononitrile]
other
  melting point: 138 to 139 °C
[1]
  UV: λmax: 372 nm
